The test system of this assay is Akt-mTOR pathway. Nature of the assay: Western blot of Akt, 4EBP1 and S6K phosphorylation (mechanism of macrophage induction). It counts as cell-based, mouse. The conditions noted are these: IL-4 20 ng/ml + MeCbl 1 mM + RAD001 (200 nM), 30 minutes. On the procedure:
The J774A.1 cells (Example 5-1) were seeded on a dish having a diameter of 6 cm. After 4 days, proteins were collected using a cell lysis buffer containing a cocktail of protease inhibitors. The protein concentration was measured by BCA assay. Then, 50 μg of each sample was subjected to SDS-PAGE, and the electrophoresed proteins were transferred to a polyvinylidene difluoride membrane. The membrane was blocked with a blocking buffer for 1 hour, and then the proteins were allowed to react with primary antibodies at 4° C. overnight. The proteins were further allowed to react with a secondary antibody at room temperature for 1 hour and detected using ECL Western Blotting Detection System. To detect the M1 markers iNOS and IL-1β, lipopolysaccharide (LPS) (100 ng/ml) and methylcobalamin were added at 24 hours before collecting the proteins. To detect the M2 markers Arg1 and CD206, IL-4 (20 ng/ml) and methylcobalamin were added at 72 hours before collecting the proteins.
The mechanism of the macrophage induction (Example 5) by methylcobalamin was analyzed. Specifically, the analysis was carried out as follows. At 30 minutes after IL-4 and methylcobalamin (100 nM and 1 mM) were added, activation of Akt, 4EBP1, and S6K in the Akt-mTOR pathway (one of the major signaling pathways that induce M2 gene expression) was evaluated by Western blot. In the pathway, Akt phosphorylation occurs in response to an upstream signal, and 4EBP1 phosphorylation and S6K phosphorylation further occur through mTORC1 in the downstream. The S6K phosphorylation provides a negative feedback to the upstream of the signaling pathway. Western blot was performed as in Example 5-2, except that IL-4 (20 ng/ml), methylcobalamin, and RAD001 (200 nM) were added at 30 minutes before the proteins were collected, and the primary antibodies for detection were changed.

Regarding `CO[C@H]1C[C@@H]2CC[C@@H](C)[C@@](O)(O2)C(=O)C(=O)N2CCCC[C@H]2C(=O)O[C@H]([C@H](C)C[C@@H]2CC[C@@H](OCCO)[C@H](OC)C2)CC(=O)[C@H](C)/C=C(\C)[C@@H](O)[C@@H](OC)C(=O)[C@H](C)C[C@H](C)/C=C/C=C/C=C/1C` [RAD001], the p-4EBP1/4EBP1 result was “suppressed”, the p-Akt/Akt entry was “rescued” and the p-S6K/S6K entry is recorded as “suppressed”.

These data come from US12029751B2, “Therapeutic agent for nervous system disease” (OSAKA UNIVERSITY, priority 2017, dated 2024).
